Test results: ChEMBL document CHEMBL1126528, “Synthesis and biological evaluation of a series of HIV-1 protease inhibitors” (Bioorg Med Chem Lett, 1993)

Tests used:
MT2 = test: Concentration required for anti-viral activity (Anti-HIV-IIIB activity) against human T lymphoid (MT-2) cells that are infected with HIV-IIIB virus; assay type: functional, cell-based
[1] = target: Human immunodeficiency virus type 1 protease (Human immunodeficiency virus 1, UniProt Q72874); test: Concentration required for inhibitory activity against HIV-1 Protease

SMILES | IC50 (MT2) | IC50 [1]
CC(C)(C)NC(=O)[C@@H]1C[C@@H]2CCCC[C@@H]2CN1C[C@@H](O)[C@H](Cc1ccccc1)NC(=O)[C@H](CC(N)=O)NC(=O)c1ccc2ccccc2n1 | 3 nM | 
CC[C@H](C)[C@H](NC(=O)[C@H](Cc1ccccc1)C[C@@H](O)CN1C[C@H]2CCCC[C@H]2C[C@H]1C(=O)NC(C)(C)C)C(=O)NCc1nc2ccccc2[nH]1 | 21 nM | 30 nM
CC[C@H](C)[C@H](NC(=O)[C@H](Cc1ccccc1)CC(O)CN1CCC[C@@H]1C(=O)N[C@H](C(=O)OC(C)(C)C)[C@@H](C)CC)C(=O)NCc1nc2ccccc2[nH]1 (some centres undefined) | > 1750 nM | > 1400 nM
CC[C@H](C)[C@H](NC(=O)[C@H](Cc1ccccc1)CC(O)CN1CCC[C@@H]1C(=O)NC(C)(C)C)C(=O)NCc1nc2ccccc2[nH]1 (some centres undefined) | 490 nM | 80 nM
CC[C@H](C)[C@H](NC(=O)[C@H](Cc1ccccc1)CC(O)(CO)CN1C[C@H]2CCCC[C@H]2C[C@H]1C(=O)NC(C)(C)C)C(=O)NCc1nc2ccccc2[nH]1 (some centres undefined) | 280 nM | 
CC[C@H](C)[C@H](NC(=O)[C@H](Cc1ccccc1)CC(O)CN1C[C@H]2CCCC[C@H]2C[C@H]1C(=O)NC(C)(C)C)C(=O)OC (some centres undefined) | > 1750 nM | 
CC(C)(C)NC(=O)[C@@H]1C[C@@H]2CCCC[C@@H]2CN1CC(O)C[C@@H](Cc1ccccc1)C(=O)N[C@H]1CCCC[C@@H]1NC(=O)c1ccc2ccccc2n1 (some centres undefined) | 3600 nM | 70 nM
CC[C@H](C)[C@H](NC(=O)[C@H](Cc1ccccc1)CC(O)(CO)CN(CC(=O)NC(C)(C)C)CC1CCCCC1)C(=O)NCc1nc2ccccc2[nH]1 (some centres undefined) | > 1750 nM | 140 nM
CC[C@H](C)[C@H](NC(=O)[C@H](Cc1ccccc1)CC(O)CN1CCCCC1C(=O)NC(C)(C)C)C(=O)NCc1nc2ccccc2[nH]1 (some centres undefined) | 480 nM | 30 nM
CC(C)(C)NC(=O)[C@@H]1C[C@@H]2CCCC[C@@H]2CN1CC(O)C[C@@H](Cc1ccccc1)C(=O)N[C@H]1CCCC[C@@H]1NC(=O)c1cc2ccccc2cn1 (some centres undefined) | 1750 nM | 70 nM
CC[C@H](C)[C@H](NC(=O)[C@H](CC(C)C)CC(O)CN1C[C@H]2CCCC[C@H]2C[C@H]1C(=O)NC(C)(C)C)C(=O)NCc1nc2ccccc2[nH]1 (some centres undefined) | 31 nM | 30 nM
CC[C@H](C)[C@H](NC(=O)[C@H](Cc1ccccc1)CC(O)CN1C[C@H]2CCCC[C@H]2C[C@H]1C(=O)NC(C)(C)C)C(=O)NCCc1nc2ccccc2[nH]1 (some centres undefined) | 850 nM | 130 nM
CN(CC(O)C[C@@H](Cc1ccccc1)C(=O)N[C@H]1CCCC[C@@H]1NC(=O)c1ccc2ccccc2n1)[C@@H](CC1CCCCC1)C(=O)NC(C)(C)C (some centres undefined) | > 1750 nM | > 1400 nM
CC[C@H](C)[C@H](NC(=O)[C@H](Cc1ccccc1)CC(O)CN1CCCCC1C(=O)NC(C)(C)C)C(=O)NCc1ccccn1 (some centres undefined) | > 1750 nM | 250 nM
CC[C@H](C)[C@H](NC(=O)[C@H](Cc1ccccc1)CC(O)CN1C[C@H]2CCCC[C@H]2C[C@H]1C(=O)NC(C)(C)C)C(=O)NCc1ccccn1 (some centres undefined) | 310 nM | 150 nM
CC[C@H](C)[C@H](NC(=O)[C@H](Cc1ccccc1)CC(O)CN1C[C@H]2CCCC[C@H]2C[C@H]1C(=O)NC(C)(C)C)C(=O)NCc1nc2ccccc2[nH]1 (single isomer, unassigned) | 29 nM | 30 nM
